The source of these data is US20120196901A1, “TERTIARY AMIDE OREXIN RECEPTOR ANTAGONISTS” (Merck Sharp & Dohme Corp., priority 2009, published 2012).

For the experiment, the target named is T1, OX2R (Homo sapiens, UniProt O43614).
T1 construct: expressed in transfected cells; host or cells: CHO cells (membranes)
T1 sequence (O43614 1-444): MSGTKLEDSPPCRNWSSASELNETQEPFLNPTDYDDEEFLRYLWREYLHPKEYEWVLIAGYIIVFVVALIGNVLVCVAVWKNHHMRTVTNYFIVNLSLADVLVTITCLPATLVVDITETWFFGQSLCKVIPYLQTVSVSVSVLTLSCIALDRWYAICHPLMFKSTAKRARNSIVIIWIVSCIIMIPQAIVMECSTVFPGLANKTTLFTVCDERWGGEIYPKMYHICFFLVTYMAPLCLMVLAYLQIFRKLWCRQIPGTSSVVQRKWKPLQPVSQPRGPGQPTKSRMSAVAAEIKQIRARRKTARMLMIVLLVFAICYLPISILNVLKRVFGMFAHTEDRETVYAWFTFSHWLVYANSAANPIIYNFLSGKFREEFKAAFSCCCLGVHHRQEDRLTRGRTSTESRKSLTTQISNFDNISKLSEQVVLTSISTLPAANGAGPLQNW
Description: radioligand binding assay, membranes prepared from CHO cells expressing the OX2 receptor. On the procedure:
The utility of the compounds in accordance with the present invention as orexin receptor OX1R and/or OX2R antagonists may be readily determined without undue experimentation by methodology well known in the art, including the “FLIPR Ca^2+ Flux Assay” (Okumura et al., Biochem, Biophys. Res. Comm. 280:976-981, 2001). In a typical experiment the OX1 and OX2 receptor antagonistic activity of the compounds of the present invention was determined in accordance with the following experimental method. […] Within the Fluorescent Imaging Plate Reader (FLIPR, Molecular Devices), test compounds are added to the plate in a volume of 25 ul, incubated for 5 min and finally 25 ul of agonist is added. Fluorescence is measured for each well at 1 second intervals for 5 minutes and the height of each fluorescence peak is compared to the height of the fluorescence peak induced by 70 pM Ala-6,12 orexin-A with buffer in place of antagonist. For each antagonist, […] value (the concentration of compound needed to inhibit 50% of the agonist response) is determined. Alternatively, compound potency can be assessed by a radioligand binding assay (described in Bergman et. al. Bioorg. Med. Chem. Lett. 2008, 18, 1425-1430) in which the inhibition constant (ki) is determined in membranes prepared from CHO cells expressing either the OX1 or OX2 receptor. […]

The Ki is a dissociation constant, usually derived from enzyme kinetics or from competition with a known ligand. A higher Ki goes with lower affinity. Molecule `COc1ccc(CCN(C(=O)c2cccc(C)n2)C(C)CCc2ccccc2)nc1OC` (centres unmarked) [Cmp 2-3, N-[2-(5,6-Dimethoxy-2-pyridinyl)ethyl]-6-methyl-N-(1-methyl-3-phenylpropyl)-2-pyridinecarboxamide] showed a Ki of 0.27 nM.
Under `COc1cccc(C(=O)N(CCc2ccc(OC)c(OC)n2)C(C)CCc2ccccc2)n1` (centres unmarked) [Cmp 2-13, N-[2-(5,6-dimethoxypyridin-2-yl)ethyl]-6-methoxy-N-(4-phenylbutan-2-yl)pyridine-2-carboxamide] stands 0.14 nM.
